Legend:
[1] = test system: bedstraw; assay: Test B preemergence/postemergence greenhouse plant response rating 0 to 10; type: in vivo, Galium aparine; details: for Plant response rating, Bedstraw: 0 to 10 scale
In short: (§1)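 Both application timings were run together: seeds got compound preemergence, and established seedlings (two to eighteen cm) got it postemergence. Non-phytotoxic solvent carried the chemical. Ratings are visual, versus controls, at twelve to sixteen days.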

[2] = test system: blackgrass; assay: as above; type: in vivo, Alopecurus myosuroides; details: for Plant response rating, Blackgrass: 0 to 10 scale
In short: as §1

[3] = test system: cocklebur; assay: as above; type: in vivo, Xanthium pensylvanicum; details: for Plant response rating, Cocklebur: 0 to 10 scale
In short: as §1

[4] = test system: morningglory; assay: as above; type: in vivo, Ipomoea hederacea; details: 0 to 10 scale
In short: as §1

[5] = test system: sugar beet; assay: as above; type: in vivo, Beta vulgaris; details: 0 to 10 scale
In short: as §1

[6] = test system: wild oat; assay: as above; type: in vivo, Avena fatua; details: 0 to 10 scale
In short: as §1

[7] = test system: sandbur; assay: Test G preemergence/postemergence greenhouse plant response rating 0 to 100; type: in vivo, Cenchrus echinatus; details: 0 to 100 scale
Text: Seeds, rhizomes, or plant parts of alfalfa (Medicago ativa), annual bluegrass (Poa annua), bermudagrass (Cynodon dactylon), broadleaf signalgrass (Brachiaria plantaginea), common purslane (Portulaca oleracea), common ragweed (Ambrosia elatior), […] (Paspalum dilatatum), goosegrass (Eleusine indica), guineagrass (Panicum maximum), […] exaltata), johnsongrass (Sorghum halepense), large crabgrass (Digitaria sanguinalis), peanut (Arachis hypoagaea), pitted morningglory (Ipomoea lacunosa), purple nutsedge (Cyperus rotundus), sandbur (Cenchrus echinatus), smooth crabgrass (Digitaria ischaemum) and yellow nutsedge (Cyperus esculentus) were planted into greenhouse pots containing greenhouse planting medium. Each pot contained only one plant species. The test compound was dissolved in a non-phytotoxic solvent and applied preemergence and/or postemergence to the plants. Preemergence applications were made within one day of planting the seeds or plant parts. Postemergence applications were applied when the plants were in the two to four leaf stage (three to twenty cm). Test chemicals were dissolved in a non-phytotoxic solvent and applied preemergence and postemergence to the plants. Untreated control plants and treated plants were placed in the greenhouse and visually evaluated for injury at 13 to 21 days after herbicide application. […] A dash (-) response indicates no test result.

SMILES | Plant response rating (0 to 10 scale), Bedstraw ([1]; POSTEMERGENCE, Rate 50 g/ha) | Plant response rating, Bedstraw ([1]; POSTEMERGENCE, Rate 200 g/ha) | Plant response rating, Bedstraw ([1]; Rate 200 g/ha, PREEMERGENCE) | Plant response rating (0 to 10 scale), Blackgrass ([2]; POSTEMERGENCE, Rate 50 g/ha) | Plant response rating, Blackgrass ([2]; POSTEMERGENCE, Rate 200 g/ha) | Plant response rating, Blackgrass ([2]; PREEMERGENCE, Rate 50 g/ha) | Plant response rating, Blackgrass ([2]; Rate 200 g/ha, PREEMERGENCE) | Plant response rating (0 to 10 scale), Cocklebur ([3]; POSTEMERGENCE, Rate 50 g/ha) | Plant response rating, Cocklebur ([3]; POSTEMERGENCE, Rate 200 g/ha) | Plant response rating, Cocklebur ([3]; PREEMERGENCE, Rate 50 g/ha) | Plant response rating, Cocklebur ([3]; Rate 200 g/ha, PREEMERGENCE) | Plant response rating, Morningglory ([4]; POSTEMERGENCE, Rate 50 g/ha) | Plant response rating, Morningglory ([4]; POSTEMERGENCE, Rate 200 g/ha) | Plant response rating, Morningglory ([4]; PREEMERGENCE, Rate 50 g/ha) | Plant response rating, Morningglory ([4]; Rate 200 g/ha, PREEMERGENCE) | Plant response rating, Sugar beet ([5]; POSTEMERGENCE, Rate 50 g/ha) | Plant response rating, Sugar beet ([5]; POSTEMERGENCE, Rate 200 g/ha) | Plant response rating, Sugar beet ([5]; PREEMERGENCE, Rate 50 g/ha) | Plant response rating, Sugar beet ([5]; Rate 200 g/ha, PREEMERGENCE) | Plant response rating, Wild oat ([6]; POSTEMERGENCE, Rate 50 g/ha) | further results
CC(C)Oc1cc(-c2nn3c(c2Cl)CCCC3)c(F)cc1Cl [Compound 21] | 6 | 9 | 9 | 3 | 5 | 6 | 7 | 8 | 10 | 2 | 2 | 10 | 9 | 2 | 2 | 10 | 10 | 10 | 9 | 4 | Plant response rating, Bedstraw ([1]; PREEMERGENCE, Rate 50 g/ha): 2; Plant response rating, Wild oat ([6]; POSTEMERGENCE, Rate 200 g/ha): 6; Plant response rating, Wild oat ([6]; Rate 200 g/ha, PREEMERGENCE): 6; Plant response rating, S. Sandbur ([7]; POSTEMERGENCE, Rate 125 g/ha): 0; Plant response rating, S. Sandbur ([7]; POSTEMERGENCE, Rate 250 g/ha): 0; Plant response rating, S. Sandbur ([7]; PREEMERGENCE, Rate 125 g/ha): 0; Plant response rating, S. Sandbur ([7]; PREEMERGENCE, Rate 250 g/ha): 0
Fc1cc(Cl)c(OCc2ccccc2)cc1-c1nn2c(c1Cl)CCCC2 [Compound 22] | 8 | 8 | 10 | 3 | 3 | 0 | 5 | 7 | 8 | 0 | 1 | 5 | 9 | 2 | 2 | 9 | 6 | 1 | 9 | 3 | Plant response rating, Wild oat ([6]; POSTEMERGENCE, Rate 200 g/ha): 3; Plant response rating, Wild oat ([6]; Rate 200 g/ha, PREEMERGENCE): 1; Plant response rating, S. Sandbur ([7]; POSTEMERGENCE, Rate 125 g/ha): 0; Plant response rating, S. Sandbur ([7]; POSTEMERGENCE, Rate 250 g/ha): 0; Plant response rating, S. Sandbur ([7]; PREEMERGENCE, Rate 125 g/ha): 0; Plant response rating, S. Sandbur ([7]; PREEMERGENCE, Rate 250 g/ha): 0
